The source of these data is patent US4418192A, “Anthracyclinone trisaccharide compounds” (priority 1981, dated 1983).

For one series, the system named is L 1210 leukemia cells. Kind of series: Inhibition of growth of L 1210 leukemia cells in culture. The class given is cell-based. Particulars: Mus musculus, L1210, 48 h; L 1210 cells, RPMI 1640 with 20% calf serum, 37° C., 2 days; read-out: IC50 Cell growth. As to the method:
L 1210 culture cells (5×10^4 cells/ml; final cell concentration) were inoculated to RPMI 1640 medium (Roswell Park Memorial Institute 1640 medium) containing 20% calf serum and then one of the anthracyclinone glycosides listed in Table 4 was added to make a final concentration of 0.1-5 μg/ml. After incubation at 37° C. for 2 days in a CO2 incubator, the number of cells was counted. Based on these counts, the 50% inhibitory concentration (IC50) of each test compound on the growth of L 1210 leukemia cells was calculated relative to the control test.

In series [1] the test system is DNA synthesis in L 1210 cells. Kind of series: Inhibition of DNA synthesis in L 1210 cells (radioactive precursor incorporation). It is filed as cell-based. As to conditions: Mus musculus, L1210; L 1210 cells, 15 min pre-incubation, 60 min with radioactive precursor (^14 C-uridine or ^14 C-thymidine); read-out: IC50 DNA synthesis. As to the method: (§1) For measurement of IC50 on the synthesis of nucleic acids, 5×10^5 L 1210 cells/ml were pre-cultured at 37° C. for 1-2 hours in RPMI 1640 medium containing 10% calf serum in a CO2 incubator. One of the anthracyclinone glycosides listed in Table 4 was added and incubated for a further 15 minutes. Then 0.05 μCi/ml of ^14 C-uridine or ^14 C-thymidine was added and incubated for a further 60 minutes. At the end of incorporation of the radioactive compound, 10% trichloroacetic acid was poured into the cell suspension for termination of the reaction as well as forced precipitation. The acid-insoluble fraction was collected, rinsed three times with 5% trichloroacetic acid and then dissolved in formic acid for measurement of radioactivity. Based on the radioactivities of the test and control runs, IC50 was calculated.

The subject of series [2] is RNA synthesis in L 1210 cells. Kind of series: Inhibition of RNA synthesis in L 1210 cells (radioactive precursor incorporation). As to conditions: Mus musculus, L1210; L 1210 cells, 15 min pre-incubation, 60 min with radioactive precursor (^14 C-uridine or ^14 C-thymidine); read-out: IC50 RNA synthesis. It is filed as cell-based. As to the method:
as §1

For series [3] the following is noted: in words, cited from earlier work.
Another series has as its system L 1210 leukemia. Kind of series: Antitumor activity: prolongation of survival time of CDF1 mice after intraperitoneal transplantation of L 1210 leukemia cells. The class given is in vivo. As to conditions: Mus musculus, L1210, ip, 720 h, i.p. every day for 9 days, HCl salts, L 1210 i.p. in CDF1 mice, control = 100, read-out: Prolongation rate of the survival time (T/C). As to the method: After intraperitoneal transplantation of L 1210 leukemia cells (1×10^5 cells/mouse), 0.25 ml/animal of solutions of one of the anthracyclinone glycosides (HCl salts) of the present invention in physiological saline was intraperitoneally injected to CDF1 mice every day for 9 days.

≈ marks a conversion by molar mass, not a printed value.

As usually defined, the IC50 is the concentration that inhibits the measured activity by half. Turning to `COc1cccc2c1C(=O)c1c(O)c3c(c(O)c1C2=O)C[C@@](O)(C(=O)CO)C[C@@H]3O[C@H]1C[C@H](N)[C@H](O)[C@H](C)O1` [Adriamycin, reference compound], the IC50 came out at 0.018 µg/mL (≈ 0.0331 µM) with L 1210 leukemia cells, 1.25 µg/mL (≈ 2.3 µM) in series [1] and 0.49 µg/mL (≈ 0.902 µM) in series [2]. Moreover, the side effects result in series [3] (clinical use as antitumor chemotherapeutics) is “often cause undesirable side effects”.
For the compound `CC[C@@]1(O)C[C@H](O[C@H]2C[C@H](N(C)C)[C@H](O[C@H]3C[C@H](O)[C@H](O[C@H]4CCC(=O)[C@H](C)O4)[C@H](C)O3)[C@H](C)O2)c2c(cc3c(c2O)C(=O)c2c(O)cccc2C3=O)[C@H]1C(=O)OC` [Aclacinomycin A, reference compound], the IC50 in the series on L 1210 leukemia cells was 0.03 µg/mL (≈ 0.037 µM); in series [1] it was 0.65 µg/mL (≈ 0.801 µM); in series [2], 0.085 µg/mL (≈ 0.105 µM). Also, the cardio-toxicity entry in series [3] (U.S. Pat. No. 3,988,315 and Jap. P. No. 864,851) is listed as “less cardio-toxic”.
For `COc1cccc2c1C(=O)c1c(O)c3c(c(O)c1C2=O)C[C@@](O)(C(=O)CO)C[C@@H]3O[C@H]1C[C@H](N(C)C)[C@H](O[C@H]2C[C@H](OC(C)=O)[C@H](O[C@H]3CCC(=O)[C@H](C)O3)[C@H](C)O2)[C@H](C)O1` [3"-O--acetyl AMN--RDC], the response vs control in vivo at 0.32 mg/kg with L 1210 leukemia (0.32 mg/kg/day) amounted to 144%. Further, the response vs control in vivo at 0.63 mg/kg with L 1210 leukemia (0.63 mg/kg/day) was determined as 165%. For the same compound, in the series with L 1210 leukemia (1.25 mg/kg/day), the response vs control in vivo at 1.25 mg/kg is 140%. Further, the response vs control in vivo at 2.5 mg/kg in the series with L 1210 leukemia (2.5 mg/kg/day) was found to be 96%. Moreover, the figures for the IC50 (in the series with L 1210 leukemia cells; in series [1]; in series [2]) were less than 0.01 µg/mL, 0.32 µg/mL (≈ 0.374 µM) and 0.012 µg/mL (≈ 0.014 µM), respectively.
